Laboratory results: US12655130B2 (ASSEMBLY BIOSCIENCES, INC., priority 2020, dated 2026)
Read-outs that look alike come from different tables or passages of the source.

System: HBV viral load (viral production from HepAD38 cells)
Assay: Activity of test compounds on viral production from HepAD38 cells (viral load by qPCR of HBV core sequence)
Format: cell-based
Description: Assay Measuring Activity of Test Compounds on Viral Production from HepAD38 Cells
HepAD38 cells grown in a T-150 flask (Corning, cat #: 430825) with Growth Medium (DMEM/F12 (1:1) (Hyclone, cat #: SH30023.02), 1× Pen/Strep (Invitrogen, cat #: 15140-122), 10% FBS (Tissue Culture Biologics, cat #: 101), 250 μg/mL G418 (Alfa Aesar, cat #: J62671), 1 μg/mL Tetracycline (Teknova, cat #: T3320)) were detached with 0.25% trypsin-EDTA (Invitrogen, cat #: 25200-056). Tetracycline-free treatment medium (15 mL DMEM/F12 (1:1) 1× Pen/step, with 2% FBS, Tet-system approved (Clontech, cat #: 631106) were then added to mix, transferred into a 50 ml conical tube (Falcon, cat #: 21008-918) and spun at 1300 rpm for 5 min. Pelleted cells were then re-suspended/washed with 50 mL of 1×DPBS (Invitrogen, cat #: 14190-136) 2 times and 50 mL treatment medium twice. HepAD38 cells were then re-suspended with 10 mL of treatment medium, syringed and counted. Wells of 96-well clear bottom TC plate (Corning, cat #: 3904) were seeded at 50,000 cells/well in 180 μL of treatment medium, and 20 μL of either 10% DMSO (Sigma, cat #: D4540) as controls or a 10× solution of test compounds in 10% DMSO in treatment media was added for a final compound concentration starting at 10 μM, and plates were incubated in 5% CO2 incubator at 37° C. for 5 days.
Subsequently viral load production was assayed by quantitative PCR (qPCR) of the HBV core sequence. PCR reaction mixture containing forward primers HBV-f 5′-CTGTGCCTTGGGTGGCITT-3′ (IDT DNA), Reverse primers HBV-r 5′-[…]-3′ (IDT DNA), Fluorescent TaqMan™ Probes HBV-probe 5′-FAM/AGCTCCAAA/ZENMITCTITATAAGGGTCGATGTC/3IABkFQ-3′ (IDT DNA), 10 μL/well of PerfeCTa® qPCR ToughMix® (Quanta Biosciences, Cat #: 95114-05K), and 6 μL/well of DEPC water (Alfa Aesar, cat #: J62087) was prepared. Four μL of supernatant was added to 16 μL of the reaction mixture in a qPCR plate (Applied Biosytems, Cat #: 4309849), sealed with a film (Applied Biosystems, Cat #: 4311971), centrifuged for a few seconds, and subsequently run on an Applied Biosystems VIIA7. The PCR mixture was incubated at 45° C. for 5 min, then 95° C. for 10 min, followed by 40 cycles of 10 seconds at 95° C. and 20 seconds at 60° C. Viral load was quantified against known HBV DNA standards by using ViiA™ 7 Software. Viral load in the supernatant from wells with treated cells were compared against viral load in supernatant from DMSO control wells (3 per plate). Cell viability assay was performed with CellTiter-Glo Luminescent Cell Viability Assay (Promega, cat #: G7573) with modification. Mixed appropriate amount of CellTiter-Glo (CTG) 1×DPBS in a 1:1 ratio, added 100 uL of the mixture to each well followed completely removal of all supernatant in each well without touching cell surface. Incubated the plate at room temperature for 10 min on an orbital shaker, and then read the plate with a plate reader (TECAN M1000 or Envision). EC50 or CC50 values were calculated through curve-fitting of the four-parameter nonlinear-logistic-regression model (GraphPad Prism or Dotmatics). CC50 values were all >10 μM.

[1] = Hepatitis B virus, HePAD38, 120 h, viral load lowering, 5 days, qPCR of supernatant, read-out: VL HepAD38 EC50 range

Row | SMILES | EC50 [1] [nM] | EC50 (read-out: VL HepAD38 EC50 range, viral load lowering, 5 days, qPCR of supernatant) [nM]
1 | CCOC(=O)CC1CC2CC(c3ncn(C)c3C(=O)Nc3ccc(F)c(Cl)c3)CC2C1 (stereo not shown) [Example 16, Ethyl 2-(5-(5-((3-chloro-4-fluorophenyl)carbamoyl)-1-methyl-1H-imidazol-4-yl)octahydropentalen-2-yl)acetate] | < 10 | 
2 | Cn1cnc(C2CC3CC(CC(N)=O)CC3C2)c1C(=O)Nc1ccc(F)c(Cl)c1 (stereo not shown) [Example 17, 4-(5-(2-Amino-2-oxoethyl)octahydropentalen-2-yl)-N-(3-chloro-4-fluorophenyl)-1-methyl-1H-imidazole-5-carboxamide] | < 10 | 
3 | CN1CCN(C2CC3CC(c4ncn(C)c4C(=O)Nc4ccc(F)c(Cl)c4)CC3C2)CC1 (stereo not shown) [Example 18, N-(3-Chloro-4-fluorophenyl)-1-methyl-4-(5-(4-methylpiperazin-1-yl)octahydropentalen-2-yl)-1H-imidazole-5-carboxamide] | 10 to 50 | 
4 | Cn1c(Cl)nc(C2CC3CC(=O)CC3C2)c1C(=O)Nc1ccc(F)c(Cl)c1 (stereo not shown) [Example 21, 2-Chloro-N-(3-chloro-4-fluorophenyl)-1-methyl-4-(5-oxooctahydropentalen-2-yl)-1H-imidazole-5-carboxamide] | < 10 | 
5 | Cn1c(Cl)nc(C2CC3CC(O)CC3C2)c1C(=O)Nc1ccc(F)c(Cl)c1 (stereo not shown) [Example 22, 2-Chloro-N-(3-chloro-4-fluorophenyl)-4-(5-hydroxyoctahydropentalen-2-yl)-1-methyl-1H-imidazole-5-carboxamide] | < 10 | 
6 | Cc1nc(C2CC3CC(=O)CC3C2)c(C(=O)Nc2ccc(F)c(Cl)c2)n1C (stereo not shown) [Example 23, N-(3-Chloro-4-fluorophenyl)-1,2-dimethyl-4-(5-oxooctahydropentalen-2-yl)-1H-imidazole-5-carboxamide] | < 10 | 
7 | Cc1nc(C2CC3CC(O)CC3C2)c(C(=O)Nc2ccc(F)c(Cl)c2)n1C (stereo not shown) [Example 24, N-(3-Chloro-4-fluorophenyl)-4-(5-hydroxyoctahydropentalen-2-yl)-1,2-dimethyl-1H-imidazole-5-carboxamide] | < 10 | 
8 | Cc1nc(C2CC3CC(O)(CS(C)(=O)=O)CC3C2)c(C(=O)Nc2ccc(F)c(Cl)c2)n1C (stereo not shown) [Example 25, N-(3-Chloro-4-fluorophenyl)-4-(5-hydroxy-5-((methylsulfonyl)methyl)octahydropentalen-2-yl)-1,2-dimethyl-1H-imidazole-5-carboxamide] | < 10 | 
9 | Cc1nc(C2CC3CC(O)(C(F)(F)F)CC3C2)c(C(=O)Nc2ccc(F)c(Cl)c2)n1C (stereo not shown) [Example 26, N-(3-Chloro-4-fluorophenyl)-4-(5-hydroxy-5-(trifluoromethyl)octahydropentalen-2-yl)-1,2-dimethyl-1H-imidazole-5-carboxamide] | 10 to 50 | 
10 | Cn1c(N)nc(C2CC3CC(O)CC3C2)c1C(=O)Nc1ccc(F)c(Cl)c1 (stereo not shown) [Example 28, 2-Amino-N-(3-chloro-4-fluorophenyl)-4-(5-hydroxyoctahydropentalen-2-yl)-1-methyl-1H-imidazole-5-carboxamide] | < 10 | 
11 | CNc1nc(C2CC3CC(=O)CC3C2)c(C(=O)Nc2ccc(F)c(Cl)c2)n1C (stereo not shown) [Example 29, N-(3-Chloro-4-fluorophenyl)-1-methyl-2-(methylamino)-4-(5-oxooctahydropentalen-2-yl)-1H-imidazole-5-carboxamide] | 10 to 50 | 
12 | CNc1nc(C2CC3CC(O)CC3C2)c(C(=O)Nc2ccc(F)c(Cl)c2)n1C (stereo not shown) [Example 30, N-(3-Chloro-4-fluorophenyl)-4-(5-hydroxyoctahydropentalen-2-yl)-1-methyl-2-(methylamino)-1H-imidazole-5-carboxamide] | < 10 | 
13 | O=C1CC2CC(c3nc4n(c3C(=O)Nc3ccc(F)c(Cl)c3)CCC4)CC2C1 (stereo not shown) [Example 31, N-(3-Chloro-4-fluorophenyl)-2-(5-oxooctahydropentalen-2-yl)-6,7-dihydro-5H-pyrrolo[1,2-a]imidazole-3-carboxamide] | < 10 | 
14 | O=C(Nc1ccc(F)c(Cl)c1)c1ocnc1C1CC2CC(O)CC2C1 (stereo not shown) [Example 36, N-(3-Chloro-4-fluorophenyl)-4-(5-hydroxyoctahydropentalen-2-yl)oxazole-5-carboxamide] | 50 to 500 | 
15 | O=C(Nc1ccc(F)c(Cl)c1)c1sc(C(F)(F)F)nc1C1CC2CC(O)CC2C1 (stereo not shown) [Example 37, N-(3-chloro-4-fluorophenyl)-4-(5-hydroxyoctahydropentalen-2-yl)-2-(trifluoromethyl)thiazole-5-carboxamide] | 50 to 500 | 
16 | O=C1CC2CC(c3ncsc3C(=O)Nc3ccc(F)c(Cl)c3)CC2C1 (stereo not shown) [Example 38, N-(3-Chloro-4-fluorophenyl)-4-(5-oxooctahydropentalen-2-yl)thiazole-5-carboxamide] | < 10 | 
17 | O=C(Nc1ccc(F)c(Cl)c1)c1scnc1C1CC2CC(O)CC2C1 (stereo not shown) [Example 39, N-(3-Chloro-4-fluorophenyl)-4-(5-hydroxyoctahydropentalen-2-yl)thiazole-5-carboxamide] | < 10 | 
18 | O=C1CC2CC(c3nc4n(c3C(=O)Nc3ccc(F)c(Cl)c3)CCCC4)CC2C1 (stereo not shown) [Example 40, 2-[-5-Oxo-2,3,3a,4,6,6a-hexahydro-1H-pentalen-2-yl]-N-(3-chloro-4-fluorophenyl)-5,6,7,8-tetrahydroimidazo[1,2-a]pyridine-3-carboxamide] |  | 50 to 500
19 | CCNc1nc(C2CC3CC(O)CC3C2)c(C(=O)Nc2ccc(F)c(Cl)c2)n1C (stereo not shown) [Example 41, 5-[-5-Hydroxy-1,2,3,3a,4,5,6,6a-octahydropentalen-2-yl]-N-(3-chloro-4-fluorophenyl)-2-(ethylamino)-3-methyl-4-imidazolecarboxamide] | 10 to 50 | 
20 | Cn1c(C#N)nc(C2CC3CC(O)CC3C2)c1C(=O)Nc1ccc(F)c(Cl)c1 (stereo not shown) [Example 42, 5-[-5-Hydroxy-1,2,3,3a,4,5,6,6a-octahydropentalen-2-yl]-N-(3-chloro-4-fluorophenyl)-2-cyano-3-methyl-4-imidazolecarboxamide] | 10 to 50 | 
21 | CN(C)C1CC2CC(c3ncn(C)c3C(=O)Nc3ccc(F)c(Cl)c3)CC2C1 (stereo not shown) [Example 43, 5-[5-(Dimethylamino)-1,2,3,3a,4,5,6,6a-octahydropentalen-2-yl]-N-(3-chloro-4-fluorophenyl)-3-methyl-4-imidazolecarboxamide] | 10 to 50 | 
22 | Cn1cnc(C2CC3CC(N4CCCCC4)CC3C2)c1C(=O)Nc1ccc(F)c(Cl)c1 (stereo not shown) [Example 46, 5-[-5-(1-Piperidinyl)-1,2,3,3a,4,5,6,6a-octahydropentalen-2-yl]-N-(3-chloro-4-fluorophenyl)-3-methyl-4-imidazolecarboxamide] | 10 to 50 | 
23 | Cn1cnc(C2CC3CC(N4CCOCC4)CC3C2)c1C(=O)Nc1ccc(F)c(Cl)c1 (stereo not shown) [Example 47, 5-[-5-(4-Morpholinyl)-1,2,3,3a,4,5,6,6a-octahydropentalen-2-yl]-N-(3-chloro-4-fluorophenyl)-3-methyl-4-imidazolecarboxamide] | 50 to 500 | 
24 | CN(Cc1ccccc1)c1nc(C2CC3CC(O)CC3C2)c(C(=O)Nc2ccc(F)c(Cl)c2)n1C (stereo not shown) [Example 48, 2-(benzyl(methyl)amino)-N-(3-chloro-4-fluorophenyl)-4-(5-hydroxyoctahydropentalen-2-yl)-1-methyl-1H-imidazole-5-carboxamide] | 50 to 500 | 
25 | CCNc1nc(C2CC3CC(=O)CC3C2)c(C(=O)Nc2ccc(F)c(Cl)c2)n1C (stereo not shown) [Example 49, N-(3-chloro-4-fluorophenyl)-2-(ethylamino)-1-methyl-4-(5-oxooctahydropentalen-2-yl)-1H-imidazole-5-carboxamide] | 50 to 500 | 
